Assay results published in PMC7129073 (Clinical Microbiology and Infection, 2015).
In brackets after ≈: the same amount, converted by molar mass. Like-named read-outs stand apart in the source and are kept apart here.

How the values were obtained:
K. pneumoniae [1] = assay: MIC; format: cell-based, Klebsiella pneumoniae; details: Klebsiella pneumoniae
[2] = test system: Pseudomonas aeruginosa (PSA); assay: Vitek 2 susceptibility, urine isolates of children; format: cell-based; details: both departments
Enterobacteriaceae = assay: SMART 2003 Europe, microdilution; format: cell-based; details: 1948 isolates
E. coli [3] = assay: E-test susceptibility; format: cell-based, Escherichia coli
H. influenzae [4] = format: cell-based, Haemophilus influenzae
P.aeruginosa = assay: Italian survey of severe infections 2003, MIC; format: cell-based, Pseudomonas aeruginosa
Nocardia spp. [5] = assay: Time-kill at peak-serum concentrations, seven strains; format: cell-based; details: of seven strains; 24, 72 h
E. coli [6] = assay: SMART 2003 Europe, microdilution; format: cell-based, Escherichia coli; details: 1106 isolates
Gram-negative rods = assay: Microscan MIC, blood culture isolates; format: cell-based
Acinetobacter = assay: Disk diffusion; format: cell-based; details: 37 isolates selected as resistant to beta-lactams
Klebsiella = assay: SMART 2003 Europe, microdilution; format: cell-based, Klebsiella spp.; details: 341 isolates
B.cepacia = assay: Italian survey of severe infections 2003, MIC; format: cell-based, Burkholderia cepacia
PSA = details: background statement, no reference given; cited from earlier work
N. farcinica strain = assay: E-test on Mueller-Hinton agar; format: cell-based; details: Nocardia farcinica
Enterobacter spp = assay: E-test susceptibility; format: cell-based
A. baumannii = assay: Italian survey of severe infections 2003, MIC; format: cell-based, Acinetobacter baumannii
S. pneumoniae [7] = assay: MIC of invasive strains, Saint George Hospital 2001–2004; format: cell-based, Streptococcus pneumoniae
[8] = test system: viridans group streptococci (VGS); assay: MIC; format: cell-based
F. necrophorum = assay: E-test, 13 clinical isolates; format: cell-based, Fusobacterium necrophorum
P. aeruginosa = format: cell-based, Pseudomonas aeruginosa
[9] = test system: inducible Enterobacteriaceae; assay: SMART 2003, intraabdominal isolates; format: cell-based
K. pneumoniae [10] = assay: E-test susceptibility; format: cell-based, Klebsiella pneumoniae
Nocardia spp. [11] = assay: E-test on Mueller Hinton agar, 81 clinical isolates; format: cell-based; details: Nocardia
K. oxytoca = assay: E-test susceptibility; format: cell-based, Klebsiella oxytoca
PRSP = assay: Broth microdilution; format: cell-based, Streptococcus pneumoniae
Escherichia coli = assay: Vitek 2 susceptibility, urine isolates of children; format: cell-based
H. influenzae [12] = assay: Disk diffusion; format: cell-based, Haemophilus influenzae; details: 237 isolates
S. pneumoniae [13] = assay: Broth microdilution; format: cell-based, Streptococcus pneumoniae
Haemophilus influenzae = assay: Susceptibility testing; format: cell-based; details: conjunctival isolates 2000–2004
H.influenzae [14] = assay: Broth microdilution; format: cell-based, Haemophilus influenzae
E. faecalis [15] = assay: Italian survey of severe infections 2003, MIC; format: cell-based, Enterococcus faecalis
Moraxella spp. = assay: Disk diffusion; format: cell-based; details: 35 isolates
enterococci = assay: Disk diffusion and E-test, faecal isolates of cancer patients; format: cell-based, Enterococcus; details: 38 strains; gentamycin: high level
[16] = test system: intestinal Escherichia coli; assay: ampicillin resistance of intestinal isolates during treatment; design: species or system beagles; details: dog, in vivo
C. jejuni ATCC 33560 = assay: VetMIC broth microdilution, QC strain; format: cell-based; details: Campylobacter jejuni, ATCC33560, read-out: QC limits (MIC)
[17] = test system: Salmonella serotype Typhimurium; assay: Disk diffusion, food isolates Spain; format: cell-based; details: n = 53
Salmonella spp. = assay: Agar dilution susceptibility, gastroenteritis isolates Cuba; format: cell-based; details: 34 strains, 2002
M. catarrhalis = assay: PROTEKT Italy, NCCLS microdilution; format: cell-based, Moraxella catarrhalis
[18] = test system: Staphylococcus coagulase negative (CNS); assay: Susceptibility testing; format: cell-based; details: conjunctival isolates 2000–2004
H. influenzae [19] = assay: MIC of invasive strains, Saint George Hospital 2001–2004; format: cell-based, Haemophilus influenzae; details: n = 129
E. faecalis [20] = assay: E-test susceptibility; format: cell-based, Enterococcus faecalis
ERSP = assay: Broth microdilution; format: cell-based, Streptococcus pneumoniae; details: Streptococcus pneumoniae
[21] = test system: Salmonella serotype Enteritidis; assay: Disk diffusion, food isolates Spain; format: cell-based; details: n = 96
Staphylococcus aureus = assay: Susceptibility testing; format: cell-based; details: conjunctival isolates 2000–2004
H.influenzae [22] = assay: PROTEKT Italy, NCCLS microdilution; format: cell-based, Haemophilus influenzae
[23] = test system: Pseudomonas putida clinical isolates; assay: Agar dilution MIC; format: cell-based
[24] = test system: Salmonella, other 49 serotypes; assay: Disk diffusion, food isolates Spain; format: cell-based; details: n = 115
Shigella spp. = assay: Disk diffusion, stool isolates Tehran; format: cell-based; details: 96 isolates
H. influenzae [25] = assay: Disk diffusion, sputum isolates Athens 2001–2004; format: cell-based, Haemophilus influenzae
Escherichia coli O157:H7 = assay: Kirby-Bauer susceptibility; format: cell-based; details: 30 strains, 1990–2003
H. influenzae [26] = assay: Broth microdilution; format: cell-based, Haemophilus influenzae; details: 267 isolates
E. coli [27] = assay: Disk diffusion, urine isolates of BPH patients; details: strains isolated after operative intervention
[28] = NCCLS breakpoints (Amox/Clav 2/1 mcg/mL)

For `C[C@@H](O)[C@H]1C(=O)N2C(C(=O)O)=C(SCCN=CN)C[C@H]12` [imipenem], the MIC (K. pneumoniae [1]) was 1 to 8 mg/L (≈ 3.34 to 26.7 µM), the Susceptible isolates [2] was 74-100% and the per cent susceptible (Enterobacteriaceae) was over 99%. The Susceptible isolates (E. coli [3]; ICU, SRGA breakpoints, tigecycline tentative S ≤2 μg/ml) was 99%, the Susceptible isolates (E. coli [3]; non ICU) was 100% and the resistant (H. influenzae [4]) was 0%. The resistance (P.aeruginosa) was 11.9%, the “strains with bactericidal activity (≥3 log10 cfu/ml decrease)” value (Nocardia spp. [5]) was 4 strains and the per cent susceptible (E. coli [6]) was 100%. The “susceptible strains (n/N)” value (Gram-negative rods) was 15/16, the resistant isolates (Acinetobacter) was 0.0% and the per cent susceptible (Klebsiella) was 99%. For the same molecule, the resistance (B.cepacia) was 71.4%, the MIC50 (PSA) was 1 mg/L (≈ 3.34 µM) and the MIC (N. farcinica strain) was over 32 mg/L. It also gave a Susceptible isolates (Enterobacter spp; ICU) of 96%, a Susceptible isolates (Enterobacter spp; non ICU) of 98% and a resistance (A. baumannii) of 22.5%. The “% S” value (S. pneumoniae [7]) was 100%, the “%R” value (S. pneumoniae [7]) was 0% and the MIC50 [8] was 0.015 mg/L (≈ 0.0501 µM). For the same molecule, the MIC90 [8] was 0.12 mg/L (≈ 0.401 µM), the MIC range (F. necrophorum) was 0.004 to 32 mg/L and the MIC50 (F. necrophorum; Fusobacterium necrophorum) was 1.5 mg/L (≈ 5.01 µM). The MIC90 (F. necrophorum; Fusobacterium necrophorum) was over 32 mg/L, the resistant (P. aeruginosa) was 42% and the “% susceptible” value ([9]; A/P (N = 200)) was 99%. The “% susceptible” value ([9]; EU (N = 354)) was 98%, the “% susceptible” value ([9]; LA (N=113)) was 98% and the “% susceptible” value ([9]; NA (N = 163)) was 98%. The Susceptible isolates (K. pneumoniae [10]; ICU) was 100%, the Susceptible isolates (K. pneumoniae [10]; non ICU) was 99% and the MIC50 (Nocardia spp. [11]) was 0.5 mg/L (≈ 1.67 µM). The MIC90 (Nocardia spp. [11]) was 2 mg/L (≈ 6.68 µM), the Susceptible isolates (K. oxytoca; ICU) was 100/100% and the Susceptible isolates (K. oxytoca; non ICU) was 100/100%.
With `CC1(C)S[C@@H]2[C@H](NC(=O)[C@H](N)c3ccccc3)C(=O)N2[C@H]1C(=O)O` [ampicillin] the “%Sus” value (PRSP; [28]) was 0.0%, the MIC90 (PRSP; Streptococcus pneumoniae, PRSP) was 8 mg/L (≈ 22.9 µM) and the susceptibility rate (Escherichia coli; paediatric surgical unit (PSU)) was 15%. The susceptibility rate (Escherichia coli; paediatric units (PU)) was 54%, the Susceptible isolates (H. influenzae [12]) was 92% and the “%Sus” value (S. pneumoniae [13]; [28]) was 0.0%. For the same molecule, the MIC90 (S. pneumoniae [13]; Streptococcus pneumoniae) was 4 mg/L (≈ 11.4 µM), the resistant isolates (Haemophilus influenzae) was 9.5% and the MIC90 (H.influenzae [14]; Haemophilus influenzae) was over 16 mg/L. For the same molecule, the “%Sus” value (H.influenzae [14]; NCCLS) was 74.6%, the resistant (H. influenzae [4]) was 4.7% and the resistance (E. faecalis [15]) was 0.4%. It also gave a Susceptible isolates (Moraxella spp.) of 49%, a resistant isolates (Moraxella spp.) of 51% and a resistant strains (enterococci) of 50%. For the same molecule, the “proportion of ampicillin-resistant isolates during treatment” value [16] was 98%, the MIC (C. jejuni ATCC 33560) was 2 to 8 mg/L (≈ 5.72 to 22.9 µM) and the “resistance rate (NCCLS M100-S13)” value [17] was 62%. The resistance (Salmonella spp.) was 44%, the susceptibility rate (M. catarrhalis; year 1) was 22.7% and the susceptibility rate (M. catarrhalis; year 2) was 18.9%. The resistant isolates [18] was 79.5%, the resistant isolates (H. influenzae [19]) was 60% and the Susceptibility (E. faecalis [20]; ICU, SRGA breakpoints, tigecycline tentative ≤2 μg/ml) was 99/99%. For the same molecule, the Susceptibility (E. faecalis [20]; non-ICU) was 99/99%, the MIC90 (ERSP) was 8 mg/L (≈ 22.9 µM) and the “resistance rate (NCCLS M100-S13)” value [21] was 8%. The resistant isolates (Staphylococcus aureus) was 66.6%, the resistance (H.influenzae [22]; year 1) was 26.5% and the resistance (H.influenzae [22]; year 2) was 20.6%. The MIC [23] was over 128 mg/L, the “resistance rate (NCCLS M100-S13)” value [24] was 14% and the resistance (Shigella spp.) was 100%. The resistance rate (H. influenzae [25]; 2001–2002) was 10.9%, the resistance rate (H. influenzae [25]; 2003–2004) was 23.1% and the resistant strains (Escherichia coli O157:H7) was 13.3%. The resistant (H. influenzae [26]) was 5.2% and the resistance (E. coli [27]) was 93.1%.
